Data from ChEMBL document CHEMBL2163271, “Antitumor agents 295. E-ring hydroxylated antofine and cryptopleurine analogues as antiproliferative agents: design, synthesis, and mechanistic studies” (J Med Chem, 2012).

Tests used:
Format in all cases: functional, cell-based
KB = test: Cytotoxicity against human KB cells after 2 hrs by methylene blue staining-based spectrophotometric analysis
A549 = test: Cytotoxicity against human A549 cells after 2 hrs by methylene blue staining-based spectrophotometric analysis; conditions: A549, 2 h
SK-BR-3 = test: Cytotoxicity against human SKBR3 cells after 2 hrs by methylene blue staining-based spectrophotometric analysis; conditions: SK-BR-3, 2 h
[1] = Cytotoxicity against human KBVIN cells overexpressing P-gp after 2 hrs by methylene blue staining-based spectrophotometric analysis
DU-145 = test: Cytotoxicity against human DU145 cells after 2 hrs by methylene blue staining-based spectrophotometric analysis; conditions: DU-145, 2 h

Row | Compound | IC50 (KB) [µM] | IC50 (A549) [µM] | IC50 (SK-BR-3) [µM] | IC50 [1] [µM] | IC50 (DU-145) [µM]
1 | COc1ccc2c3c(c4cc(OC)c(OC)cc4c2c1)C[C@H]1CCC(=O)CN1C3 | 0.734 | 0.91 | 3.34 | 1.48 | 1.7
2 | COc1ccc2c3c(c4cc(OC)c(OC)cc4c2c1)C[C@H]1CC(=O)CN1C3 | 0.5 | 0.29 |  | 0.43 | 0.71
3 | COC1=C[C@@H]2Cc3c(c4ccc(OC)cc4c4cc(OC)c(OC)cc34)CN2C1 | 12 | 5.97 |  | 2.64 | 10.3
4 | COc1ccc2c3c(c4cc(OC)c(OC)cc4c2c1)C[C@H]1[C@H](O)CCCN1C3 | 0.3 | 0.069 |  | 0.12 | 0.2
5 | CC[C@@]1(O)CCN2Cc3c(c4cc(OC)c(OC)cc4c4cc(OC)ccc34)C[C@H]2C1 | 0.92 | 0.99 |  | 0.87 | 0.77
